Earlier results on one compound are cited in patent US8153159B2, “Modafinil modified release pharmaceutical compositions” (Cephalon, Inc., priority 2003, dated 2012).

The test system of one data set is mice. The conditions noted are these: single administration, Duteil et al. 1990.
For a further data set, the system named is humans. The conditions noted are these: Bastuji et al. 1988.
Another data set concerns monkeys. The conditions noted are these: single administration, Duteil et al. 1990.

As for `NC(=O)C[S+]([O-])C(c1ccccc1)c1ccccc1` (stereo not drawn) [Modafinil, 2-(benzhydrylsulfinyl)acetamide], the locomotor activity entry in the data set with mice was “increased locomotor activity”. For the same compound, the “treatment of idiopathic hypersomnia and narcolepsy” value in the data set on humans is listed as “successfully tested”. Further, the nocturnal activity entry in the data set with monkeys was “increased nocturnal activity”.
